{"source": "BindingDB's records for PubMed 9808667", "about": "(Dupont Pharmaceuticals, 1998)", "target": "T1, Galanin receptor type 1 (Homo sapiens, UniProt P47211)", "T1 sequence (P47211 whole entry)": "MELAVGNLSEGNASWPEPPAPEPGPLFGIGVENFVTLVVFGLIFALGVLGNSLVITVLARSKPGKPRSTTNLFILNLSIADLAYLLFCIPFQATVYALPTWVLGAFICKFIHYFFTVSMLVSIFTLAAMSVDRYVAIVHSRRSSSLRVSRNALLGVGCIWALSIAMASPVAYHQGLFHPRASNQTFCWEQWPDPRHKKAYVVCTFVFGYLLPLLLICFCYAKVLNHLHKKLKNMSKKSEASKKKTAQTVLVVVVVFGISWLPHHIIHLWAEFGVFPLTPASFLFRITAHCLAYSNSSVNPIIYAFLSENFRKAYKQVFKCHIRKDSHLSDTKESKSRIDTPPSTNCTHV", "note": "Square brackets hold non-standard residues; d marks the D form. Peptide text beside a SMILES is read from it."}
{"smiles": "CC(C)C[C@H](NC(=O)[C@H](CC(C)C)NC(=O)[C@@H](Cc1c[nH]c2ccccc12)NC(=O)[C@H](Cc1ccccc1)NC(=O)[C@@H](Cc1c[nH]c2ccccc12)NC(=O)[C@H](CCC(N)=O)NC(=O)[C@H](CCC(N)=O)NC(=O)[C@@H]1CCCN1C(=O)[C@H](CCCCN)NC(=O)[C@@H]1CCCN1C(=O)[C@@H](CCCNC(=N)N)NC(=O)[C@@H]1CCCN1C(=O)CNC(=O)[C@H](CC(C)C)NC(=O)[C@H](CC(C)C)NC(=O)[C@H](Cc1ccc(O)cc1)NC(=O)CNC(=O)[C@H](C)NC(=O)[C@H](CO)NC(=O)[C@H](CC(N)=O)NC(=O)[C@H](CC(C)C)NC(=O)[C@@H](NC(=O)[C@H](Cc1c[nH]c2ccccc12)NC(=O)CN)[C@@H](C)O)C(N)=O", "note": "[Gal(1-13)-Std I] (H-GWTLNSAGYLLGP[dR]PKPQQ[dW]F[dW]LL-NH2)", "values": [{"measurement": "Ki", "value": 685, "unit": "nM"}]}
